ChEMBL document CHEMBL3046208, “Natural and synthetic podolactones with potential use as natural herbicide models” (2000)
The source made the active and inactive calls.

Assays:
Hordeum vulgare [1] = test: Stimulation of root length of Hordeum vulgare (barley) at 0.1 mM after 5 days relative to untreated control; assay type: functional
Triticum aestivum [2] = test: Stimulation of shoot length of Triticum aestivum (wheat) at 0.1 mM after 5 days relative to untreated control; assay type: functional
Hordeum vulgare [3] = test: Stimulation of germination of Hordeum vulgare (barley) at 0.1 mM after 5 days relative to untreated control; assay type: functional
Triticum aestivum [4] = test: Stimulation of root length of Triticum aestivum (wheat) at 0.1 mM after 5 days relative to untreated control; assay type: functional
Triticum aestivum [5] = test: Stimulation of germination of Triticum aestivum (wheat) at 0.1 mM after 5 days relative to untreated control; assay type: functional
Allium cepa [6] = test: Stimulation of root length of Allium cepa (onion) at 0.1 mM after 5 days relative to untreated control; assay type: functional
Allium cepa [7] = test: Stimulation of shoot length of Allium cepa (onion) at 0.1 mM after 5 days relative to untreated control; assay type: functional
Allium cepa [8] = test: Stimulation of germination of Allium cepa (onion) at 0.1 mM after 5 days relative to untreated control; assay type: functional
Solanum lycopersicum [9] = test: Stimulation of shoot length of Solanum lycopersicum (tomato) at 0.1 mM after 5 days relative to untreated control; assay type: functional
Solanum lycopersicum [10] = test: Stimulation of root length of Solanum lycopersicum (tomato) at 0.1 mM after 5 days relative to untreated control; assay type: functional
Solanum lycopersicum [11] = test: Stimulation of germination of Solanum lycopersicum (tomato) at 0.1 mM after 5 days relative to untreated control; assay type: functional
Lepidium sativum [12] = test: Stimulation of shoot length of Lepidium sativum at 0.1 mM after 5 days relative to untreated control; assay type: functional
Lepidium sativum [13] = test: Stimulation of root length of Lepidium sativum at 0.1 mM after 5 days relative to untreated control; assay type: functional
Lactuca sativa [14] = test: Stimulation of shoot length of Lactuca sativa cv. Roman (lettuce) at 0.1 mM after 5 days relative to untreated control; assay type: functional
Lepidium sativum [15] = test: Stimulation of germination of Lepidium sativum at 0.1 mM after 5 days relative to untreated control; assay type: functional
Lactuca sativa [16] = test: Stimulation of root length of Lactuca sativa cv. Roman (lettuce) at 0.1 mM after 5 days relative to untreated control; assay type: functional
Lactuca sativa [17] = test: Stimulation of germination of Lactuca sativa cv. Roman (lettuce) at 0.1 mM after 5 days relative to untreated control; assay type: functional
Lactuca sativa [18] = test: Stimulation of shoot length of Lactuca sativa cv. Nigra (lettuce) at 0.1 mM after 5 days relative to untreated control; assay type: functional
Lactuca sativa [19] = test: Stimulation of root length of Lactuca sativa cv. Nigra (lettuce) at 0.1 mM after 5 days relative to untreated control; assay type: functional
Lactuca sativa [20] = test: Stimulation of germination of Lactuca sativa cv. Nigra (lettuce) at 0.1 mM after 5 days relative to untreated control; assay type: functional
Triticum aestivum [21] = test: Inhibition of shoot length of Triticum aestivum (wheat) at 0.1 mM after 5 days relative to untreated control; assay type: functional; details: for inhibition at 100 µM: 120 h
Hordeum vulgare [22] = test: Inhibition of germination of Hordeum vulgare (barley) at 0.1 mM after 5 days relative to untreated control; assay type: functional; details: 120 h
Hordeum vulgare [23] = test: Inhibition of root length of Hordeum vulgare (barley) at 0.1 mM after 5 days relative to untreated control; assay type: functional; details: 120 h
Hordeum vulgare [24] = test: Stimulation of shoot length of Hordeum vulgare (barley) at 0.1 mM after 5 days relative to untreated control; assay type: functional
Lactuca sativa [25] = test: Inhibition of germination of Lactuca sativa cv. Nigra (lettuce) at 0.1 mM after 5 days relative to untreated control; assay type: functional; details: 120 h
Lactuca sativa [26] = test: Inhibition of root length of Lactuca sativa cv. Nigra (lettuce) at 0.1 mM after 5 days relative to untreated control; assay type: functional; details: for inhibition at 100 µM: 120 h
Lactuca sativa [27] = test: Inhibition of shoot length of Lactuca sativa cv. Nigra (lettuce) at 0.1 mM after 5 days relative to untreated control; assay type: functional; details: 120 h
Solanum lycopersicum [28] = test: Inhibition of shoot length of Solanum lycopersicum (tomato) at 10 uM after 5 days relative to untreated control; assay type: functional, organism-based
Lactuca sativa [29] = test: Inhibition of germination of Lactuca sativa cv. Roman (lettuce) at 0.1 mM after 5 days relative to untreated control; assay type: functional; details: 120 h
Lactuca sativa [30] = test: Inhibition of root length of Lactuca sativa cv. Roman (lettuce) at 0.1 mM after 5 days relative to untreated control; assay type: functional; details: 120 h
Lactuca sativa [31] = test: Inhibition of shoot length of Lactuca sativa cv. Roman (lettuce) at 0.1 mM after 5 days relative to untreated control; assay type: functional; details: 120 h
Lepidium sativum [32] = test: Inhibition of germination of Lepidium sativum at 0.1 mM after 5 days relative to untreated control; assay type: functional
Lepidium sativum [33] = test: Inhibition of root length of Lepidium sativum at 0.1 mM after 5 days relative to untreated control; assay type: functional; details: 120 h
Lepidium sativum [34] = test: Inhibition of shoot length of Lepidium sativum at 0.1 mM after 5 days relative to untreated control; assay type: functional; details: 120 h
Solanum lycopersicum [35] = test: Inhibition of germination of Solanum lycopersicum (tomato) at 0.1 mM after 5 days relative to untreated control; assay type: functional; details: 120 h
Solanum lycopersicum [36] = test: Inhibition of root length of Solanum lycopersicum (tomato) at 0.1 mM after 5 days relative to untreated control; assay type: functional; details: 120 h
Solanum lycopersicum [37] = test: Inhibition of shoot length of Solanum lycopersicum (tomato) at 0.1 mM after 5 days relative to untreated control; assay type: functional; details: 120 h
Allium cepa [38] = test: Inhibition of germination of Allium cepa (onion) at 0.1 mM after 5 days relative to untreated control; assay type: functional; details: 120 h
Allium cepa [39] = test: Inhibition of root length of Allium cepa (onion) at 0.1 mM after 5 days relative to untreated control; assay type: functional; details: 120 h
Allium cepa [40] = test: Inhibition of shoot length of Allium cepa (onion) at 0.1 mM after 5 days relative to untreated control; assay type: functional; details: 120 h
Triticum aestivum [41] = test: Inhibition of germination of Triticum aestivum (wheat) at 0.1 mM after 5 days relative to untreated control; assay type: functional; details: for inhibition at 100 µM: 120 h
Triticum aestivum [42] = test: Inhibition of root length of Triticum aestivum (wheat) at 0.1 mM after 5 days relative to untreated control; assay type: functional; details: 120 h
Solanum lycopersicum [43] = test: Inhibition of root length of Solanum lycopersicum (tomato) at 10 uM after 5 days relative to untreated control; assay type: functional, organism-based
Solanum lycopersicum [44] = test: Inhibition of germination of Solanum lycopersicum (tomato) at 10 uM after 5 days relative to untreated control; assay type: functional, organism-based
Lepidium sativum [45] = test: Inhibition of shoot length of Lepidium sativum at 10 uM after 5 days relative to untreated control; assay type: functional, organism-based
Lepidium sativum [46] = test: Inhibition of root length of Lepidium sativum at 10 uM after 5 days relative to untreated control; assay type: functional, organism-based
Lepidium sativum [47] = test: Inhibition of germination of Lepidium sativum at 10 uM after 5 days relative to untreated control; assay type: functional, organism-based
Hordeum vulgare [48] = test: Inhibition of shoot length of Hordeum vulgare (barley) at 0.1 mM after 5 days relative to untreated control; assay type: functional; details: for inhibition at 100 µM: 120 h

CO[C@H]1OC(=O)C=C2C1=C[C@H]1OC(=O)[C@@]3(C)CCC[C@@]2(C)[C@@H]13
20%: Activity (Lepidium sativum [15]) | inhibition at 100 µM (Lepidium sativum [32]; 120 h)
>40%: Activity (Hordeum vulgare [1]) | Activity (Triticum aestivum [2]) | Activity (Hordeum vulgare [3]) | Activity (Triticum aestivum [4]) | Activity (Triticum aestivum [5]) | Activity (Allium cepa [6]) | Activity (Allium cepa [7]) | Activity (Allium cepa [8]) | Activity (Solanum lycopersicum [9]) | Activity (Solanum lycopersicum [10]) | Activity (Solanum lycopersicum [11]) | Activity (Lepidium sativum [12]) | Activity (Lepidium sativum [13]) | Activity (Lactuca sativa [14]) | Activity (Lactuca sativa [16]) | Activity (Lactuca sativa [17]) | Activity (Lactuca sativa [18]) | Activity (Lactuca sativa [19]) | Activity (Lactuca sativa [20]) | Activity (Hordeum vulgare [24])
> 40%: inhibition at 100 µM (Triticum aestivum [21]) | inhibition at 100 µM (Hordeum vulgare [22]) | inhibition at 100 µM (Hordeum vulgare [23]) | inhibition at 100 µM (Lactuca sativa [25]) | inhibition at 100 µM (Lactuca sativa [26]) | inhibition at 100 µM (Lactuca sativa [27]) | inhibition at 100 µM (Lactuca sativa [29]) | inhibition at 100 µM (Lactuca sativa [30]) | inhibition at 100 µM (Lactuca sativa [31]) | inhibition at 100 µM (Lepidium sativum [33]) | inhibition at 100 µM (Lepidium sativum [34]) | inhibition at 100 µM (Solanum lycopersicum [35]) | inhibition at 100 µM (Solanum lycopersicum [36]) | inhibition at 100 µM (Solanum lycopersicum [37]) | inhibition at 100 µM (Allium cepa [38]) | inhibition at 100 µM (Allium cepa [39]) | inhibition at 100 µM (Allium cepa [40]) | inhibition at 100 µM (Triticum aestivum [41]) | inhibition at 100 µM (Triticum aestivum [42]) | inhibition at 100 µM (Hordeum vulgare [48])
active: inhibition (Solanum lycopersicum [28]) | inhibition (Solanum lycopersicum [43]) | inhibition (Solanum lycopersicum [44]) | inhibition (Lepidium sativum [45]) | inhibition (Lepidium sativum [46]) | inhibition (Lepidium sativum [47])

COc1nc(C)nc(NC(=O)NS(=O)(=O)c2ccccc2OCCCl)n1 [LOGRAN]
20%: Activity (Triticum aestivum [2]) | Activity (Triticum aestivum [4]) | Activity (Allium cepa [8]) | Activity (Solanum lycopersicum [11]) | inhibition at 100 µM (Triticum aestivum [21]) | Activity (Hordeum vulgare [24]) | inhibition at 100 µM (Solanum lycopersicum [35]) | inhibition at 100 µM (Allium cepa [38]) | inhibition at 100 µM (Triticum aestivum [42]) | inhibition at 100 µM (Hordeum vulgare [48])
< 20%: inhibition at 100 µM (Lepidium sativum [34])
> 40%: inhibition at 100 µM (Hordeum vulgare [22]) | inhibition at 100 µM (Hordeum vulgare [23]) | inhibition at 100 µM (Lactuca sativa [25]) | inhibition at 100 µM (Lactuca sativa [26]) | inhibition at 100 µM (Lactuca sativa [27]) | inhibition at 100 µM (Lactuca sativa [29]) | inhibition at 100 µM (Lactuca sativa [30]) | inhibition at 100 µM (Lactuca sativa [31]) | inhibition at 100 µM (Lepidium sativum [33]) | inhibition at 100 µM (Solanum lycopersicum [36]) | inhibition at 100 µM (Solanum lycopersicum [37]) | inhibition at 100 µM (Allium cepa [39]) | inhibition at 100 µM (Allium cepa [40]) | inhibition at 100 µM (Triticum aestivum [41])
<20%: Activity (Lepidium sativum [12])
inactive: Activity (Lepidium sativum [15]) | inhibition (Lepidium sativum [32])
>40%: Activity (Hordeum vulgare [1]) | Activity (Hordeum vulgare [3]) | Activity (Triticum aestivum [5]) | Activity (Allium cepa [6]) | Activity (Allium cepa [7]) | Activity (Solanum lycopersicum [9]) | Activity (Solanum lycopersicum [10]) | Activity (Lepidium sativum [13]) | Activity (Lactuca sativa [14]) | Activity (Lactuca sativa [16]) | Activity (Lactuca sativa [17]) | Activity (Lactuca sativa [18]) | Activity (Lactuca sativa [19]) | Activity (Lactuca sativa [20])

COC(=O)[C@@]1(C)CCC[C@]2(C)C3=CC(=O)O[C@H](C(C)C)C3=CC[C@@H]12
inactive: Activity (Triticum aestivum [2]) | Activity (Triticum aestivum [5]) | Activity (Lepidium sativum [15]) | Activity (Lactuca sativa [19]) | inhibition (Triticum aestivum [21]) | Activity (Hordeum vulgare [24]) | inhibition (Lactuca sativa [26]) | inhibition (Lepidium sativum [32]) | inhibition (Triticum aestivum [41]) | inhibition (Hordeum vulgare [48])
< 20%: inhibition at 100 µM (Hordeum vulgare [23]) | inhibition at 100 µM (Lactuca sativa [25]) | inhibition at 100 µM (Lactuca sativa [27]) | inhibition at 100 µM (Lactuca sativa [29]) | inhibition at 100 µM (Lactuca sativa [30]) | inhibition at 100 µM (Lactuca sativa [31]) | inhibition at 100 µM (Lepidium sativum [34]) | inhibition at 100 µM (Solanum lycopersicum [35]) | inhibition at 100 µM (Solanum lycopersicum [37]) | inhibition at 100 µM (Triticum aestivum [42])
<20%: Activity (Hordeum vulgare [1]) | Activity (Triticum aestivum [4]) | Activity (Solanum lycopersicum [9]) | Activity (Solanum lycopersicum [11]) | Activity (Lepidium sativum [12]) | Activity (Lactuca sativa [14]) | Activity (Lactuca sativa [16]) | Activity (Lactuca sativa [17]) | Activity (Lactuca sativa [18]) | Activity (Lactuca sativa [20])
>40%: Activity (Solanum lycopersicum [10])
> 40%: inhibition at 100 µM (Solanum lycopersicum [36])
20%: Activity (Hordeum vulgare [3]) | Activity (Allium cepa [6]) | Activity (Allium cepa [7]) | Activity (Allium cepa [8]) | Activity (Lepidium sativum [13]) | inhibition at 100 µM (Hordeum vulgare [22]) | inhibition at 100 µM (Lepidium sativum [33]) | inhibition at 100 µM (Allium cepa [38]) | inhibition at 100 µM (Allium cepa [39]) | inhibition at 100 µM (Allium cepa [40])
